Where two headings read alike, the source gives them in different places.
Assays:
[1] = mass balance study with [14C]vibegron; conditions: 2 and 4 hr
[2] = drug interaction of vibegron and metoprolol succinate (CYP2D6 substrate); assay type: in vivo, human
[3] = test system: men and women with overactive bladder; assay: Phase 3 study vibegron 75 mg: post-void residual urine volume (Tables 26-28); assay type: in vivo, human
Text: The risk of acute urinary retention or morbidities related to an increase in Post-Void Residual (PVR) is a concern with antimuscarinic therapy that promotes smooth muscle relaxation by inhibiting acetylcholine-induced smooth muscle contraction. If, during contraction, the bladder cannot generate enough pressure to overcome the outlet resistance in the urethra, either because of poor detrusor contractility or profound obstruction (most commonly from BPH), acute urinary retention or incomplete emptying of the bladder may result.
The volume of urine that remains in the bladder after voiding (PVR) is an objective measurement that may serve as a proxy for impaired ability to void.
PVR were performed via ultrasound at the visits indicated in the Schedule of Activities.
In addition, the data on the Post Void Residual Urine Volume (PVR) in all males and males with a medical history of BPH is shown in Tables 26 and 27, respectively.

[4] = test system: men and women with overactive bladder; assay: Phase 3 study vibegron 75 mg vs placebo and tolterodine, 12 weeks, OAB: efficacy (Tables 21-25); assay type: in vivo, human; conditions: for Micturitions: Week 12 CFB Mean / Urgency Episodes: Week 12 CFB Mean / UUI: Week 12 CFB Mean: descriptive statistics; for UUI: Week 12 CFB Mean: daily UUI episodes
Experimental: Enrollment of patients included individuals with OAB Wet (those with UUI, the involuntary loss of urine accompanied by urgency) and OAB Dry (those without UUI). A total of 1,518 patients were randomized across 215 study sites into one of three groups for a 12-week treatment period.
The study consisted of a Screening Period (1 to 5 weeks), a single-blind Run-in Period (2 weeks), a randomized double-blind Treatment Period (12 weeks), and a Follow-up Period (4 weeks).
Tolterodine ER 4 mg was the active control. […] Between the Baseline and Week 12 Visits, patients had study assessments at Week 4 and Week 8.
For the analysis of the co-primary endpoints (change from baseline in average number of daily micturitions at Week 12 and change from baseline in average number of daily urge urinary incontinence episodes at Week 12, and placebo adjustment of each), a mixed model for repeated measure (MMRM) with restricted maximum likelihood estimation was used. This model corrects for dropout and accounts for the fact that measurements taken on the same patient over time tend to be correlated by using all available information on patients within the same covariate set to derive an estimate of the treatment effect for a dropout-free population. The analysis model for each efficacy endpoint includes terms for treatment, visit, OAB Type (Wet vs Dry), Sex (Female vs Male), Region (US vs Rest of World), baseline score, and interaction of visit by treatment.
Primary inferences were drawn from treatment differences for the changes from baseline derived from the MMRM models at Week 12. As part of secondary objectives, the treatment differences for each post baseline visit were also derived using the same MMRM model.
An unstructured covariance matrix was used to model the correlation among repeated measurements. The Kenward-Roger adjustment was used with restricted (or residual) maximum likelihood (REML) to make statistical inference. If the unstructured covariance model fails to converge with the default Newton-Raphson algorithm, the Fisher scoring algorithm or other appropriate methods can be used to provide initial values of the covariance parameters. In the rare event that none of the above methods yield convergence, a structured covariance would be used to model the correlation among repeated measurements.
The change from baseline efficacy endpoints was analyzed using the same MMRM model described for co-primary endpoints.
Analysis of the efficacy endpoints of proportion of patients with at least 75% reduction in the average number of daily UUI episodes at Week 12 and proportion of patients with 50% reduction in the average number of daily urgency episodes at Week 12 was analyzed using the Cochran-Mantel-Haenszel risk difference estimate. Missing Week 12 data was analyzed using multiple imputation. The estimated difference in the proportion of responders and 95% confidence interval for the difference was calculated using the Cochran-Mantel-Haenszel risk difference estimate stratified by OAB Type (Wet vs Dry) and Sex (Female vs Male), with weights proposed by Greenland and Robins.
The same statistical methods that were used to analyze the co-primary and secondary efficacy endpoints were used for the exploratory analyses. Exploratory responder analyses were analyzed using the same Cochran-Mantel-Haenszel model as described above for secondary endpoints.

men and women with OAB = assay: Phase 2b study in OAB: efficacy (voiding diary); assay type: in vivo, human; conditions: tolterodine ER 4 mg QD
Text: Part 2 was designed to continue to assess the safety and efficacy of concomitant dosing. […] Subjects in both Part 1 and Part 2 had the option of enrolling in a 1-year extension. Participants were required to keep a voiding diary, recording the occurrence of each strong urge, total incontinence, and urge incontinence episode. Efficacy data for Part 1 and Part 2 are summarized herein.
The total number of urgency incontinence episodes must have exceeded the total number of stress incontinence episodes for all subjects.
Conversely, a dose dependent effect on urge incontinence or total incontinence was not observed.

patients with OAB = assay: Phase 2b study: cardiovascular safety, orthostatic AEs, blood pressure and heart rate changes (Table 17); assay type: in vivo, human; conditions: tolterodine 4 mg
Text: None led to discontinuation. The overall incidence of orthostatic symptoms was low.
Small differences in the percent of subjects exceeding categorical heart rate and blood pressure thresholds for vibegron were similar to those in the tolterodine arm.

[5] = test system: patients with overactive bladder
Text: A placebo group was included in the main study, and a group that received tolterodine monotherapy was included in the main study and in the extension.

[6] = metoprolol 100 mg, vibegron 75 mg
[7] = Males with medical history of BPH
[8] = all males, vibegron 75 mg or tolterodine ER 4 mg QD
[9] = Week 12, co-primary endpoint, once-daily vibegron 75 mg or tolterodine
[10] = Week 12, key secondary endpoint, once-daily vibegron 75 mg or tolterodine
[11] = counts based on 3 consecutive post-baseline visits

## O=C(O)C1OC(OC(c2ccccc2)C2CCC(Cc3ccc(NC(=O)C4CCc5nccc(=O)n54)cc3)N2)C(O)C(O)C1O (stereo not shown) [M7]
[1]
  share of total circulating drug-related material in human plasma: 12-14%

## COCCc1ccc(OCC(O)CNC(C)C)cc1 (stereo not shown) [Metoprolol, metoprolol succinate]
[2]; [6]
  AUC0-∞ ratio of GLS mean, metoprolol + vibegron/metoprolol alone: 1.40
  Cmax ratio of GLS mean, metoprolol + vibegron/metoprolol alone: 1.49
[2]; metoprolol succinate 100 mg, vibegron 75 mg QD
  geometric mean Cmax and AUC in the presence of vibegron: increased slightly

## Cc1ccc(O)c([C@H](CCN(C(C)C)C(C)C)c2ccccc2)c1 [Tolterodine ER, tolterodine]
[3]; [7]
  PVR Categories at Week 12: <100 mL: 71.4%
  PVR Categories at Week 12: ≥100 mL to <200 mL: 28.6%
  PVR Categories at Week 12: ≥200 mL to <350 mL: 0%
  PVR Categories at Week 12: ≥350 mL: 0%
  PVR Mean Change from Baseline at Week 12 (SD): 3.7 (50.64) mL
[3]; [8]
  PVR Mean Change from Baseline at Week 12 (SD): 10.2 (44.24) mL
  PVR category <100 mL at Week 12: 85.2%
  PVR category ≥100 mL to <200 mL at Week 12: 11.5%
  PVR category ≥200 mL to <350 mL at Week 12: 3.3%
  PVR category ≥350 mL at Week 12: 0
[3]; study population as a whole
  PVR Categories at Week 12: <100 mL: 86.5%
  PVR Categories at Week 12: ≥100 mL to <200 mL: 5.8%
  PVR Categories at Week 12: ≥200 mL to <350 mL: 0.7%
  PVR Categories at Week 12: ≥350 mL: 0%
  PVR Mean Change from Baseline at Week 12 (SD): 3.1 (40.93) mL
[4]; Males with BPH
  Micturitions: Week 12 CFB Mean: −1.25
  Urgency Episodes: Week 12 CFB Mean: −3.29
  UUI: Week 12 CFB Mean: −2.15
[4]; Males without BPH
  Micturitions: Week 12 CFB Mean: −1.29
  Urgency Episodes: Week 12 CFB Mean: −2.32
  UUI: Week 12 CFB Mean: −2.05
[4]; Overall for Males
  Micturitions: Week 12 CFB Mean: −1.28
[4]; Overall
  Micturitions: Week 12 CFB Mean: −1.78
  Urgency Episodes: Week 12 CFB Mean: −2.57
  UUI: Week 12 CFB Mean: −1.75
[4]; [9]
  Micturitions, Week 12 LS Mean Change from Baseline (Placebo-Adjusted): −0.3
  UUI Episodes, Week 12 LS Mean Change from Baseline (Placebo-Adjusted): −0.4
[4]; [10]
  OAB-q Coping Score, Week 12 LS Mean Change from Baseline (Placebo-Adjusted): 3.1
  Total Incontinence Episodes, Week 12 LS Mean Change from Baseline (Placebo-Adjusted): −0.5
  Urgency Episodes, Week 12 LS Mean Change from Baseline (Placebo-Adjusted): −0.4
  Volume Voided, Week 12 LS Mean Change from Baseline (Placebo-Adjusted): 13.3 mL
Men and women with OAB
  Micturitions difference from placebo in LS means, Week 8: −0.54
  Urgency Episodes difference from placebo in LS means, Week 8: −0.94
Men and women with OAB; OAB Wet
  Total Incontinence Episodes difference from placebo in LS means, Week 8: −0.34
  Urgency Incontinence Episodes difference from placebo in LS means, Week 8: −0.46
Patients with OAB; [11]
  DBP Change from Baseline [≥] 5 mm Hg, n/N (%): 30/242 (12.4) %
  DBP Change from Baseline [≥] 10 mm Hg, n/N (%): 13/242 (5.4) %
  DBP Change from Baseline ≥15 mm Hg, n/N (%): 3/242 (1.2) %
  HR Change from Baseline [≥] 5 mm Hg, n/N (%): 29/242 (12.0) %
  HR Change from Baseline [≥] 10 bpm, n/N (%): 11/242 (4.5) %
  HR Change from Baseline ≥15 bpm, n/N (%): 4/242 (1.7) %
  SBP Change from Baseline [≥] 5 mm Hg, n/N (%): 41/242 (16.9) %
  SBP Change from Baseline [≥] 10 mm Hg, n/N (%): 19/242 (7.9) %
  SBP Change from Baseline ≥15 mm Hg, n/N (%): 7/242 (2.9) %
Patients with OAB; mean maximum from week 1 to 8
  DBP Change from Baseline, Mean (95% CI) Max: 5.19 (4.26, 6.13) mm Hg
  HR Change from Baseline, Mean (95% CI) Maximum: 5.66 (4.69, 6.63) bpm
  SBP Change from Baseline, Mean (95% CI) Maximum: 7.29 (6.01, 8.57) mm Hg
Patients with OAB; week 1
  DBP Change from Baseline, Mean (95% CI) (week 1): −0.12 (−1.10, 0.86) mm Hg
  HR Change from Baseline, Mean (95% CI) (week 1): 0.68 (−0.31, 1.67) bpm
  SBP Change from Baseline, Mean (95% CI) (week 1): 0.04 (−1.36, 1.43) mm Hg
[5]; ER 4 mg QD
  Accidental overdose: 6 (2.3) n (%)
  Alanine aminotransferase increased: 1 (0.4) n (%)
  Arthralgia: 3 (1.2) n (%)
  Aspartate aminotransferase increased: 0 (0.0) n (%)
  Constipation: 5 (1.9) n (%)
  Diarrhea: 9 (3.5) n (%)
  Discontinuation due to AE: 4 (1.6) n (%)
  Discontinuation due to drug-related AE: 0 n (%)
  Dizziness: 5 (1.9) n (%)
  Drug-related AE: 42 (16.3) n (%)
  Dry eye: 10 (3.9) n (%)
  Dry mouth: 22 (8.6) n (%)
  Dysuria: 3 (1.2) n (%)
  Fatigue: 6 (2.3) n (%)
  Headache: 9 (3.5) n (%)
  Nasopharyngitis: 4 (1.6) n (%)
  Nausea: 6 (2.3) n (%)
  Osteoarthritis: 0 (0.0) n (%)
  Pain in extremity: 1 (0.4) n (%)
  Serious AE: 3 (1.2) n (%)
  Sinusitis: 1 (0.4) n (%)
  Urinary tract infection: 12 (4.7) n (%)
  ≥1 AE: 116 (45.1) n (%)
[5]; ER 4 mg QD, listed as tolterodine
  Serious AE: 3 n (%)
[5]; Phase 2, tolterodine arm vs vibegron
  frequency of injuries: 2.1%
